For assay [1], the system named is porcine epidemic diarrhea virus (PEDV). The assay can be described thus: Inhibition of PEDV replication in infected Vero E6 cells (vRNA in supernatant by qRT-PCR). In kind it is cell-based. As to conditions: 10 μM and 2 μM, MOI 0.05, 24 h, FIG. 1. On the procedure: This Example evaluated whether bromophenol-pyrazoline compounds can inhibit replication of porcine coronavirus in Vero E6 cells infected with clinically isolated strains of porcine epidemic diarrhea virus (PEDV).
Specific operation: pre-seeded Vero E6 cells (5×10^4 cells/well) were respectively pretreated for 1 h with different concentrations of bromophenol-pyrazoline compounds to be tested (2 μM and 10 μM), and then infected with porcine coronavirus (PEDV; MOI: 0.05) for 2 h. Then, a virus-compound mixture was removed, and the cells were further cultured with a fresh medium containing the bromophenol-pyrazoline compound. After 24 hours, a cell supernatant was collected, and vRNA in the supernatant was analyzed by qRT-PCR. The treatment without a bromophenol-pyrazoline compound was used as a control.
For orientation: In qPCR the cycle at which signal appears reflects the starting amount.

Assay [2] deals with porcine epidemic diarrhea virus. The assay can be described thus: Clinical trial in diseased pigs with epidemic diarrhea (PEDV infection). As to conditions: for Diarrhea Scoring Index: individual pigs, 0 formed manure, 1 thick not formed, 2 manure and water separation, 3 watery manure; for Effective rate / Number of deaths / Mortality rate: diseased pigs within 10 days of age; for Effective rate: 72 h, based on diarrhea scoring index; for Number of deaths: 72 h observation, treatment twice a day; for Mortality rate: piglet deaths at end of 72 h test. The format is in vivo, pig. On the procedure: Through the PCR detection of diseased pig tissues at Zhucheng Pig Farm in November 2020, the type of viral infection was determined.
Diseased pigs with epidemic diarrhea within 10 days of age were selected and randomly divided into 4 groups, i.e. untreated group, traditional Chinese medicine treatment group, compound 4 treatment group and lgY antibody treatment group, respectively. The traditional Chinese medicine treatment group was drenched with a compound decoction consisting of dandelion, Chinese violet, coptis, isatis root, etc., twice a day for 3 consecutive days. Compound 4 was taken at a dose of 25 mg/pig after being dissolved in a dextrose solution, twice a day. The lgY antibody treatment group was fed with chicken egg antibodies (lgY), twice a day. The untreated group, the traditional Chinese medicine treatment group and the lgY antibody treatment group were respectively drenched with the same dose of the glucose solution as the compound 4 treatment group. The pigs were breast-fed during treatment.
During the clinical treatment of the diseased pigs with epidemic diarrhea, the diarrhea indexes of the diseased pigs in the untreated group (6 pigs), the compound 4 treatment group (8 pigs) and the lgY antibody treatment group (6 pigs) were scored through sampling.

In assay [3] the test system is porcine transmissible gastroenteritis virus (TGEV). The assay can be described thus: Inhibition of TGEV replication in infected Vero E6 cells (vRNA in supernatant by qRT-PCR). The format is cell-based. As to conditions: 10 μM and 2 μM, MOI 0.05, 24 h, FIG. 2. Here is the method: This Example evaluated whether bromophenol-pyrazoline compounds can inhibit replication of porcine coronavirus in Vero E6 cells infected with clinically isolated strains of porcine transmissible gastroenteritis virus (TGEV).
Specific operation: pre-seeded Vero E6 cells (5×10^4 cells/well) were respectively pretreated for 1 h with different concentrations of bromophenol-pyrazoline compounds to be tested (2 μM and 10 μM), and then infected with porcine coronavirus (TGEV; MOI: 0.05) for 2 h. Then, a virus-compound mixture was removed, and the cells were further cultured with a fresh medium containing the bromophenol-pyrazoline compound. After 24 hours, a cell supernatant was collected, and vRNA in the supernatant was analyzed by qRT-PCR. The treatment without a bromophenol-pyrazoline compound was used as a control.

“And” between values parts separate entries of the source, which are not always exact repeats. Equal entries are not always repeated.

Consider `CC(C)(C)c1ccc(Oc2ccc(C3=NN(C(N)=S)C(c4ccc(O)c(O)c4)C3)cc2)cc1` (centres unmarked) [Compound 4], for which the “inhibitory activity against replication of PEDV (viral RNA)” value in assay [1] was “strongest inhibitory activity”. In addition, the alleviation of diarrhea result in assay [2] (8 scored diseased pigs, 24 h after oral administration) is recorded as “significantly alleviated diarrhea”. The curative ratio in assay [2] (8 scored diseased pigs, 72 h after oral administration) was found to be 100%. For the same compound, the “Diarrhea Scoring Index” value was 3 (7×) and 2 in assay [2] (12 h after administration); 2 (7×) and 1 in assay [2] (24 h after administration); 0 (5×) and 1 (2×) and 2 in assay [2] (48 h after administration); 0 in assay [2] (72 h after administration). In addition, the Effective rate in assay [2] and in assay [2] (listed as compound 4) was 100% throughout. Moreover, the Number of deaths in assay [2] is 0; in assay [2] (listed as compound 4), “no pig died”. For the same compound, the Mortality rate in assay [2] and in assay [2] (listed as compound 4) was 0% in each case. In addition, the “inhibitory activity against replication of TGEV (viral RNA)” value in assay [3] was “strongest inhibitory activity”.

For the origin of these results see patent US11752133B2, “Use of bromophenol-pyrazoline compounds in the treatment of porcine coronavirus diseases” (priority 2020, dated 2023).
